From ChEMBL document CHEMBL2346599, “Rational design and binding mode duality of MDM2-p53 inhibitors” (J Med Chem, 2013) come the findings set out here.

For orientation: fraction unbound means free concentration divided by total concentration. A high value points to much free substance. The term bioavailability denotes the share of a dose that reaches the circulation, judged against a reference dose that is usually intravenous. In general, half-life refers to the time in which the quantity being followed falls by half. One may read the AUC as the area under the concentration-time curve, a measure of exposure. Low values mean low exposure, high ones high exposure. In general, clearance refers to the rate of elimination divided by the concentration. Read a low clearance as inefficient removal. One may read the IC50 as the concentration at which inhibition is half-maximal.

Data set [1] in a line: Drug uptake in tumor of athymic nude mouse xenografted with human SJSA1 cells at 100 mg/kg, po qd after 7 hrs. The data set is classed as ADME, organism-based, Neoplasm, SJSA-1. Also noted: dose 100 mg/kg, route oral. The conditions noted are these: read-out: Drug uptake. (Xenograft models place foreign cells or tissue in a host animal.)
Data set [2] in a line: Drug uptake in tumor of athymic nude mouse xenografted with human SJSA1 cells at 300 mg/kg, po qd after 7 hrs. The conditions noted are these: read-out: Drug uptake. Also noted: dose 300 mg/kg, route oral. The data set is classed as ADME, organism-based, Neoplasm, SJSA-1.
Data set [3] can be described thus: Drug uptake in tumor of athymic nude mouse xenografted with human SJSA1 cells at 30 mg/kg, po qd after 7 hrs. Also noted: dose 30 mg/kg, route oral. In kind it is ADME, organism-based, Neoplasm, SJSA-1. To be noted: read-out: Drug uptake.
Data set [4] in a line: Plasma concentration in athymic nude mouse xenografted with human SJSA1 cells at 300 mg/kg, po qd after 7 hrs. The data set is classed as ADME, organism-based, SJSA-1. On the set-up: dose 300 mg/kg, route oral.
Data set [5] in a line: Fraction unbound in rat plasma. In kind it is ADME, cell-free.
Data set [6] in a line: Fraction unbound in human plasma. In kind it is ADME, cell-free.
Data set [7] is described as follows: Oral bioavailability in athymic nude mouse at 5 mg/kg. The conditions noted are these: in vivo. The data set is classed as ADME, organism-based.
The nature of data set [8]: Fraction unbound in mouse plasma. In kind it is ADME, cell-free.
A short description of data set [9]: Volume of distribution at steady state in athymic nude mouse at 1 mg/kg, iv. The conditions noted are these: in vivo, read-out: Vdss. In kind it is ADME, organism-based. On the set-up: dose 1 mg/kg, route intravenous.
A short description of data set [10]: Half life in athymic nude mouse at 1 mg/kg, iv. To be noted: in vivo. On the set-up: dose 1 mg/kg, route intravenous. In kind it is ADME, organism-based.
Data set [11] can be described thus: AUC in athymic nude mouse at 5 mg/kg, po. To be noted: plasma. In kind it is ADME, organism-based. On the set-up: dose 5 mg/kg, route oral.
A short description of data set [12]: Clearance in athymic nude mouse at 1 mg/kg, iv. To be noted: in vivo. The data set is classed as ADME, organism-based. Also noted: dose 1 mg/kg, route intravenous.
In another data set the target is T1, Protein Mdm4 (Homo sapiens, UniProt O15151).
T1 sequence (O15151 whole entry): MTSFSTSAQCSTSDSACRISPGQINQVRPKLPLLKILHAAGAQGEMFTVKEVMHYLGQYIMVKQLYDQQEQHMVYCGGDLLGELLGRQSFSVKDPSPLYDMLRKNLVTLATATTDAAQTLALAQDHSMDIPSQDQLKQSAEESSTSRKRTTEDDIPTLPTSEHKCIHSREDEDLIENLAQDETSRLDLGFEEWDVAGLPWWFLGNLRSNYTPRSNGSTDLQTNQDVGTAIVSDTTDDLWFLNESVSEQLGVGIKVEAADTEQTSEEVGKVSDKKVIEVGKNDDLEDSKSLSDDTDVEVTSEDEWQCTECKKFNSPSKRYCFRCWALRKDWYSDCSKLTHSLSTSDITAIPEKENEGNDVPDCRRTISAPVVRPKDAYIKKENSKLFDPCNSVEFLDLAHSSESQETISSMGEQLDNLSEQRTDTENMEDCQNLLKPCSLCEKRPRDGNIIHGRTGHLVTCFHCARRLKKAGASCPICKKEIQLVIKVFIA
The data set can be described thus: Binding affinity to MDMX (unknown origin) after 20 mins by HTRF assay.

For another data set, the species on record is Mus musculus. To be noted: SJSA-1, 30 to 100 mg/kg.
Data set [13] concerns the target T2, E3 ubiquitin-protein ligase Mdm2 (Homo sapiens, UniProt Q00987). The data set can be described thus: Inhibition of human recombinant GST-thrombin-MDM2 (1 to 188) expressed in Escherichia coli assessed as reduction of MDM2-p53 interaction incubated for 20 mins followed by p53 addition measured after 60 mins by HTRF assay. A general note: Time-resolved FRET reads energy transfer from a long-lived donor to a nearby acceptor.

For data set [14], the target named is T2, E3 ubiquitin-protein ligase Mdm2. The data set can be described thus: Inhibition of human recombinant GST-thrombin-MDM2 (1 to 188) expressed in Escherichia coli assessed as reduction of MDM2-p53 interaction incubated for 20 mins followed by p53 addition measured after 60 mins by HTRF assay in presence of 15% serum.

SMILES strings stand for the structures. Activity calls are given as the source filed them. No cut-off for these calls is given here.

T2 sequence (Q00987 whole entry): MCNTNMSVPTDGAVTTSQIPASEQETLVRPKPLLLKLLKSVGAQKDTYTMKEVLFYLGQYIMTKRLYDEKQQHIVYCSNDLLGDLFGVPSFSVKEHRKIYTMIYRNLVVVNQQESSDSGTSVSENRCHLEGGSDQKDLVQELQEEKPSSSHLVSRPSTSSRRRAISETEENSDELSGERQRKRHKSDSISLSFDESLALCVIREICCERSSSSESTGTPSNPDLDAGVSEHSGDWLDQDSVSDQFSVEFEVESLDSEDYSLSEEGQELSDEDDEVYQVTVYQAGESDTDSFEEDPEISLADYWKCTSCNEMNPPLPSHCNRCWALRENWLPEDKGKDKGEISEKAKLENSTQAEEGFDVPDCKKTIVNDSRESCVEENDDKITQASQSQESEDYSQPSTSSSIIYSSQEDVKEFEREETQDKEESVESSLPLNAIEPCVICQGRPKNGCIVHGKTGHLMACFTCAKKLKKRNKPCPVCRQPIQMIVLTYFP
Description for Mus musculus: In vivo inhibition of MDM2 in human SJSA1 cells xenografted in athymic nude mouse assessed as upregulation of p21 mRNA level at 30 to 100 mg/kg, po qd after 7 hrs by qRT-PCR analysis

As to `O=C(O)C[C@@H]1O[C@@H](c2cccc(Cl)c2)[C@@H](c2ccc(Cl)cc2)N(CC2CC2)C1=O`, the concentration at 7 h in [1] came to 2.1 µM; in data set [2], 22.9 µM; in [3], 0.3 µM; in [4], 102 µM. Further, the values for the fraction unbound in data set [5], in [6] and in data set [8] were 0.06, 0.042 and 0.059, respectively. The same molecule returned a bioavailability in [7] of 59%. Further, the Vd in data set [9] came to 3.9 L/kg. In addition, the half-life in data set [10] was 4.1 h. The AUC in data set [11] was found to be 4.1 µM·h. The molecule further had a clearance in [12] of 28.3 mL/min/kg. The molecule also yielded an IC50 on Protein Mdm4 of more than 30 µM. In the data set filed under Mus musculus, the inhibition entry was “inactive”.

Regarding `CN1C[C@H](Cc2ccccc2)O[C@@H](c2ccc(Br)cc2)[C@H]1c1ccc(Br)cc1` (racemic), the IC50 in data set [13] was more than 30 µM.

In the case of `COc1ccc([C@H]2CC(=O)C=C(c3ccc(Cl)cc3)[C@@H]2c2ccc(Cl)cc2)cc1OC` (racemic), in [13], the IC50 is more than 30 µM.

Turning to `CC(C)(C)OC(=O)N1CC(=O)N[C@H](c2ccc(Br)cc2)[C@@H]1c1ccc(Br)cc1` (racemic), the IC50 in data set [13] was more than 30 µM.

`O=C(O)C[C@H]1C[C@H](c2cccc(Cl)c2)[C@@H](c2ccc(Cl)cc2)N(CC2CC2)C1=O` showed an IC50 on Protein Mdm4 of more than 30 µM.

For the molecule `CN1C(=O)CO[C@@H](c2ccc(Cl)cc2)[C@H]1c1cccc(Cl)c1` (racemic), the IC50 in [14] and in [13] was more than 30 µM throughout.

In turn, `CN1C(=O)[C@H](Cc2ccccc2)O[C@@H](c2ccc(Br)cc2)[C@H]1c1ccc(Br)cc1` gave an IC50 at Protein Mdm4 of more than 30 µM.

Take `CCC[C@H](C(=O)O)N1C(=O)[C@H](Cc2ccc(F)cc2)O[C@@H](c2ccc(Cl)cc2)[C@H]1c1ccc(Cl)cc1`: the IC50 at Protein Mdm4 was more than 30 µM.
